T1: β2-GPI (Homo sapiens, UniProt P02749)
T1 construct: β2-GPI was purified from normal human plasma as described in [35] with slight modification; from tissue; host or cells: pooled normal human plasma from healthy subjects
T1 sequence (P02749 20-345): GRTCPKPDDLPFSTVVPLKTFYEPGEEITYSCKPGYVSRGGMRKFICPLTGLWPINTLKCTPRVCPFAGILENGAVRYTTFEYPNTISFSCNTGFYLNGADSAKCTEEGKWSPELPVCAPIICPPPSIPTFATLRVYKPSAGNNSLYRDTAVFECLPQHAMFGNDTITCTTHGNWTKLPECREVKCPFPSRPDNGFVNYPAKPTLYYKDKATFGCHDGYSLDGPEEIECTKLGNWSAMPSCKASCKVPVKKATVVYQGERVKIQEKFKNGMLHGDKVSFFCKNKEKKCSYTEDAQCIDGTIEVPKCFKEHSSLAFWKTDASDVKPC

B1: Ovalbumin: control protein added in Experiment 2 (protein, UniProt P01012 2-386, looked up)
Ovalbumin: GSIGAASMEFCFDVFKELKVHHANENIFYCPIAIMSALAMVYLGAKDSTRTQINKVVRFDKLPGFGDSIEAQCGTSVNVHSSLRDILNQITKPNDVYSFSLASRLYAEERYPILPEYLQCVKELYRGGLEPINFQTAADQARELINSWVESQTNGIIRNVLQPSSVDSQTAMVLVNAIVFKGLWEKAFKDEDTQAMPFRVTEQESKPVQMMYQIGLFRVASMASEKMKILELPFASGTMSMLVLLPDEVSGLEQLESIINFEKLTEWTSSNVMEERKIKVYLPRMKMEEKYNLTSVLMAMGITDVFSSSANLSGISSAESLKISQAVHAAHAEINEAGREVVGSAEAGVDAASVSEEFRADHPFLFCIKHIATNAVLFFGRCVSP

Columns and labels:
[1] = tested on: APS-1; experiment: ELISA on solid-phase lipid-coated plate: binding of antibodies of APS patient serum APS-1; set-up: species or system human; conditions: Absorbance, mean ± SD, n = 3; for Binding of protein-dependent oxLig-1 antibody, APS-1: Experiment 2, synthesized oxLig-1-solidified plate, added protein 15 μg/mL
Method: (§1) To eliminate endogenous β2-GPI in some experiments, serum samples were passed through a heparin-Sepharose column. The effluent was dialyzed against PBS and was used for ELISAs.
(§2) Synthesized oxLig-1 (50 μg/mL, 50 μL/well) was adsorbed by evaporation on a polystyrene plate (Immulon 1B; Dynex Technologies Inc.), and the plate was then blocked with 1% BSA. Serum samples (diluted 1:100 with PBS containing 0.3% BSA) were incubated in the wells with β2-GPI (15 μg/mL) or other proteins for one hour at room temperature. Antibody binding was detected with HRP-labeled anti-human IgG. Further steps were performed through a method as described in “anti-β2-GPI ELISA.”
(§3) CL (50 μg/mL, 50 μL/well) was adsorbed on a polystyrene plate (Immulon 1B), and further steps were performed through a method as described in “ELISA for antibodies against a protein-oxLig-1 complex.”

[2] = tested on: EY2C9; experiment: ELISA on solid-phase lipid (ligand)-coated plate: EY2C9 binding in presence of β2-GPI; set-up: species or system human; conditions: Absorbance, mean ± SD, n = 3; for Binding of protein-dependent oxLig-1 antibody, EY2C9: Experiment 2, synthesized oxLig-1-solidified plate, added protein 15 μg/mL
Method: (§4) Binding to extracted lipids: A microtiter plate (Immulon 1B, Dynex Technologies Inc.) was coated with lipids extracted from LDLs (50 μg/mL, 50 μL/well) by ethanol evaporation. The wells were blocked with PBS containing 1% BSA for one hour and the wells were incubated with 30 μg/mL of β2-GPI for one hour. Then, β2-GPI binding was detected using Cof-22 and HRP-labeled anti-mouse IgG antibodies. Alternatively, an anti-β2-GPI autoantibody (Cof-22, WB-CAL-1, or EY2C9) was diluted with a 0.3% BSA-containing PBS, and the diluted antibody was added to the coated plate (1.0 μg/mL, 100 μL/well) and incubated with β2-GPI (15 μg/mL) for one hour. The binding of the antibody was detected by an HRP-labeled anti-mouse IgG /or an anti-human IgM. The color was developed with H2O2 and o-phenylenediamine, and OD was measured at 490 nm. Between these steps, extensive washing were done using PBS containing 0.05% Tween 20.
as §2, §3

[3] = tested on: WB-CAL-1; experiment: ELISA on solid-phase lipid (ligand)-coated plate: WB-CAL-1 binding in presence of β2-GPI; set-up: species or system mouse; conditions: Absorbance, mean ± SD, n = 3; for Binding of protein-dependent oxLig-1 antibody, WB-CAL-1: Experiment 2, synthesized oxLig-1-solidified plate, added protein 15 μg/mL
Method: as §4, §2, §3

[4] = tested on: WB-CAL-1; experiment: Optical biosensor (IAsys): binding to solid phase WB-CAL-1 in the presence of β2-GPI; set-up: species or system mouse; conditions: β2-GPI 10 μg/mL, result in words
From the text: (§5) FIG. 1. Molecular interactions among β2-GPI, LDLs, […] (PLs), and anti-β2-GPI autoantibody, detected by an optical biosensor. • A: LDL (open square) or oxLDL (closed square) binding to solid phase β2-GPI; • B: LDL (open square) or oxLDL (closed square) binding to solid phase WB-CAL-1 in the presence of β2-GPI; • C: DOPE (open circle) or CL (closed circle) binding to solid phase β2-GPI; and • D: DOPE (open circle) or CL (closed circle) binding to solid phase WB-CAL-1 in the presence of β2-GPI.
(§6) Real-time molecular analysis was performed using an optical biosensor, IAsys (product of Affinity Sensors).
(§7) Binding of β2-GPI to LDLs or liposomes: Biotinyl-β2-GPI was immobilized on a biotinyl-cuvette via streptavidin. LDLs or liposomes at various concentrations were placed in the cuvette. Antibodies binding to LDLs or liposomes: The biotinyl-WB-CAL-1 was immobilized on the cuvette. LDLs or liposomes were added at various concentrations in the presence (10 μg/mL) or absence of β2-GPI.

[5] = target: T1, β2-GPI; experiment: Optical biosensor (IAsys): binding to solid phase β2-GPI; conditions: result in words
From the text: as §5, §6, §7

[6] = tested on: APS-2; experiment: ELISA on solid-phase lipid-coated plate: binding of antibodies of APS patient serum APS-2; set-up: species or system human; conditions: Absorbance, mean ± SD, n = 3; for Binding of protein-dependent oxLig-1 antibody, APS-2: Experiment 2, synthesized oxLig-1-solidified plate, added protein 15 μg/mL
Method: as §1, §2, §3

[7] = tested on: anti-β2-GPI antibodies; experiment: ELISA of the anti-β2-GPI antibodies by use of a ligand-coated plate (results in words); format: binding
Method: as §4, §2

[8] = target: T1, β2-GPI; experiment: ELISA on solid-phase lipid (ligand)-coated plate: β2-GPI binding detected with Cof-22; conditions: Experiment 1; Absorbance, mean ± SD, n = 3; solid-phase lipid, β2-GPI 15 μg/mL
Method: as §4, §2, §3

[9] = tested on: β2-GPI; experiment: as above; set-up: species or system human; conditions: Experiment 2; Absorbance, mean ± SD, n = 3; synthesized oxLig-1-solidified plate, added protein 15 μg/mL
Method: as §4, §2, §3

[10] = Experiment 1, solid-phase lipid, β2-GPI 15 μg/mL, serum with β2-GPI removed
[11] = Experiment 1, solid-phase lipid, β2-GPI 15 μg/mL

Molecule | Binding of β2-GPI-dependent aCL, APS-1 [1, 10] | Binding of β2-GPI-dependent aCL, EY2C9 [2, 11] | Binding of β2-GPI-dependent aCL, WB-CAL-1 [3, 11] | binding to solid phase WB-CAL-1 in the presence of β2-GPI [4] | binding to solid phase β2-GPI [5] | Binding of β2-GPI-dependent aCL, APS-2 [6, 10] | cross-reaction of autoantibodies derived from APS with β2-GPI complexed with lipid ([7]; result in words) | Binding of β2-GPI-dependent aCL, Cof-22 [8] | Binding of protein-dependent oxLig-1 antibody, APS-1 [1] | Binding of protein-dependent oxLig-1 antibody, EY2C9 [2] | Binding of protein-dependent oxLig-1 antibody, WB-CAL-1 [3] | Binding of protein-dependent oxLig-1 antibody, APS-2 [6] | antibody binding to solid-phase oxLig-1 provided by added protein ([7]; Exp-2, result in words) | Binding of protein-dependent oxLig-1 antibody, Cof-22 [9]
Cardiolipin [CL, reference compound] | 2.099 ± 0.216 | 1.269 ± 0.014 | 1.361 ± 0.008 | dose-dependent binding | large extent of binding | 1.282 ± 0.041 | cross-reacted | 1.132 ± 0.025 | – | – | – | – | – | –
CCCCCCCC/C=C\CCCCCCCC(=O)OC[C@H](COP(=O)(O)OCCN)OC(=O)CCCCCCC/C=C\CCCCCCCC [DOPE] | – | – | – | did not | did not show any specific binding | – | – | – | – | – | – | – | – | –
Haptoglobin: protein having sushi domains, without PL binding property | – | – | – | – | – | – | – | – | 0.018 ± 0.011 | 0.006 ± 0.001 | 0.006 ± 0.001 | 0.015 ± 0.002 | no antibody binding | 0.049 ± 0.001
B1 | – | – | – | – | – | – | – | – | 0.009 ± 0.004 | 0.004 ± 0.002 | 0.006 ± 0.002 | 0.016 ± 0.001 | – | 0.042 ± 0.001
